In US20230126447A1, “OCULAR DRUG DEPOT FOR COMPLEMENT-MEDIATED DISORDERS” (priority 2020, published 2023):
Like-named read-outs stand apart in the source and are kept apart here.

Assay: Ocular tissue distribution and pharmacokinetics, 15 mg/kg BID oral, nonpigmented New Zealand White rabbits (Example 7)
Type: in vivo
Procedure: For Groups 2 through 4, blood (approximately 2 mL) was collected via a jugular vein using a syringe and needle and was transferred into tubes containing K2EDTA at approximately 12 hours after the a.m. dose on Day 15 from the two animals designated for sacrifice at approximately 240 hours after the a.m. dose on Day 15. For Groups 2 through 4, two animals/group/time point were sacrificed via an overdose of sodium pentobarbital prior to dosing on Day 15 and at approximately 1, 6, 24, 96, 168, and 240 hours after the a.m. dose on Day 15. Blood (approximately 2 mL) was collected from all animals at sacrifice into tubes containing K2EDTA via exsanguination (cardiac puncture). Blood was maintained on wet ice, in chilled cryoracks, or at approximately 5° C. prior to centrifugation to obtain plasma. Centrifugation began within 1 hour of collection (Deviation). Plasma was placed into 96-well tubes with barcode labels. Plasma was maintained on dry ice prior to storage at approximately −70° C. At the time of sacrifice, both eyes were enucleated, and the following tissues were collected. Each eye was flash-frozen in liquid nitrogen for 15 to 20 seconds. The enucleated eye was placed on dry ice or stored at approximately −70° C. for at least 2 hours. Within approximately 3 days, the frozen matrices were collected as right and left eyes for each matrix into the specific tube type listed. At the time of frozen collection, the ocular tissues were rinsed with saline and blotted dry (as appropriate), weighed, and placed on dry ice. All ocular tissues were collected as single samples.

[1] = Choroid-RPE (OU), male NZW rabbits, Group 4, Day 15, 15 mg/kg/dose BID oral (30 mg/kg/day)
[2] = ICB (OU), male NZW rabbits, Group 4, Day 15, 15 mg/kg/dose BID oral (30 mg/kg/day)
[3] = NZW rabbits, Day 15, 15 mg/kg BID, 96 hr
[4] = NZW rabbits, Day 15, 15 mg/kg BID, 168 hr
[5] = NZW rabbits, Day 15, 15 mg/kg BID, 240 hr
[6] = New Zealand White, rabbit, choroid-RPE, oral, NZW rabbits, Day 15, 15 mg/kg BID, read-out: Mean Choroid-RPE Concentration
[7] = New Zealand White, rabbit, iris-ciliary body, oral, NZW rabbits, Day 15, 15 mg/kg BID, read-out: Mean Iris-Ciliary Concentration
[8] = New Zealand White, rabbit, plasma, oral, NZW rabbits, Day 15, 15 mg/kg BID, read-out: Mean Plasma Concentration
[9] = New Zealand White, rabbit, retina, oral, NZW rabbits, Day 15, 15 mg/kg BID, read-out: Mean Retina Concentration
[10] = New Zealand White, rabbit, plasma, male NZW rabbits, Group 4, Day 15, 15 mg/kg/dose BID oral (30 mg/kg/day)
[11] = Retina (OU), male NZW rabbits, Group 4, Day 15, 15 mg/kg/dose BID oral (30 mg/kg/day)
[12] = plasma, male NZW rabbits, Group 4, Day 15, 15 mg/kg/dose BID oral (30 mg/kg/day)

SMILES: CC(=O)c1nn(CC(=O)N2C[C@H](F)C[C@H]2C(=O)Nc2cccc(Br)n2)c2ccc(-c3cnc(C)nc3)cc12 [Compound 1, (2S,4R)-1-(2-(3-Acetyl-5-(2-methylpyrimidin-5-yl)-1H-indazol-1-yl)acetyl)-N-(6-bromopyridin-2-yl)-4-fluoropyrrolidine-2-carboxamide]
- AUC0-12 [1]: 1440 ng·h/g
- AUC0-240 [1]: 2370 ng·h/g
- AUC(0-24) [1]: 1830 ng·h/g
- AUC(0-t) [1]: 1830 ng·h/g
- Ctrough [1]: 50.7 ng/g
- DN AUC0-12 [1]: 95.9 (h*ng/g)/(mg/kg/dose)
- DN AUC0-24 [1]: 122 (h*ng/g)/(mg/kg/day)
- DN AUC0-240 [1]: 158 (h*ng/g)/(mg/kg/day)
- DN Cmax [1]: 19.8 (ng/g)/(mg/kg/day
- AUC0-12 [2]: 356 ng·h/g
- AUC(0-24) [2]: 453 ng·h/g
- AUC(0-t) [2]: 453 ng·h/g
- Ctrough [2]: 14.6 ng/g
- DN AUC0-12 [2]: 23.7 (h*ng/g)/(mg/kg/dose)
- DN AUC0-24 [2]: 30.2 (h*ng/g)/(mg/kg/day)
- DN Cmax [2]: 4.33 (ng/g)/(mg/kg/day)
- Mean Choroid-RPE concentration [3]: BLQ
- Mean plasma concentration [3]: BLQ
- Mean retina concentration [3]: BLQ
- Mean Choroid-RPE concentration [4]: BLQ
- Mean plasma concentration [4]: BLQ
- Mean retina concentration [4]: BLQ
- Mean Choroid-RPE concentration [5]: BLQ
- Mean plasma concentration [5]: BLQ
- Mean retina concentration [5]: BLQ
- concentration at 0 h [6]: 40.3 ng/g
- concentration at 1 h [6]: 296 ng/g
- concentration at 6 h [6]: 68.6 ng/g
- concentration at 24 h [6]: 14.9 ng/g
- Tmax (New Zealand White, rabbit, choroid-retinal pigment epithelium (choroid-RPE), Choroid-RPE (OU), male NZW rabbits, Group 4, Day 15, 15 mg/kg/dose BID oral (30 mg/kg/day)): 1 h
- Tmax (New Zealand White, rabbit, iris-ciliary body (ICB), ICB (OU), male NZW rabbits, Group 4, Day 15, 15 mg/kg/dose BID oral (30 mg/kg/day)): 1 h
- Cmax (New Zealand White, rabbit, iris-ciliary body (ICB), ICB (OU), male NZW rabbits, Group 4, Day 15, 15 mg/kg/dose BID oral (30 mg/kg/day), read-out: Cmax): 64.9 ng/g
- concentration at 1 h [7]: 64.9 ng/g
- concentration at 6 h [7]: 21.2 ng/g
- concentration at 24 h [7]: 1.6 ng/g
- concentration at 0 h [8]: 53.8 ng/mL
- concentration at 1 h [8]: 558 ng/mL
- concentration at 6 h [8]: 179 ng/mL
- concentration at 12 h (New Zealand White, rabbit, plasma, oral, NZW rabbits, Day 15, 15 mg/kg BID, 12 hr): 82.2 ng/mL
- concentration at 24 h [8]: 11.7 ng/mL
- concentration at 0 h [9]: 36.3 ng/g
- concentration at 1 h [9]: 248 ng/g
- concentration at 6 h [9]: 86.1 ng/g
- concentration at 24 h [9]: 9.18 ng/g
- Tmax (New Zealand White, rabbit, Retina (OU), male NZW rabbits, Group 4, Day 15, 15 mg/kg/dose BID oral (30 mg/kg/day)): 1 h
- Tmax [10]: 1 h
- half-life [10]: 4.53 h
- AUC0-12 [11]: 1420 ng·h/g
- AUC0-240 [11]: 2160 ng·h/g
- AUC(0-24) [11]: 1830 ng·h/g
- AUC(0-t) [11]: 1830 ng·h/g
- Ctrough [11]: 60.4 ng/g
- DN AUC0-12 [11]: 94.4 (h*ng/g)/(mg/kg/dose)
- DN AUC0-24 [11]: 122 (h*ng/g)/(mg/kg/day)
- DN AUC0-240 [11]: 144 (h*ng/g)/(mg/kg/day)
- DN Cmax [11]: 16.5 (ng/g)/(mg/kg/day)
- AUC(0-t) (male, New Zealand White, rabbit, plasma, po, 15 mg/kg, plasma, male NZW rabbits, Group 4, Day 15, 15 mg/kg/dose BID oral (30 mg/kg/day), read-out: AUC0-12): 2930 ng·h/mL
- AUC(0-t) (male, New Zealand White, rabbit, plasma, po, 15 mg/kg, plasma, male NZW rabbits, Group 4, Day 15, 15 mg/kg/dose BID oral (30 mg/kg/day), read-out: AUC0-240): 3910 ng·h/mL
- AUC(0-t) (male, New Zealand White, rabbit, plasma, po, 15 mg/kg, plasma, male NZW rabbits, Group 4, Day 15, 15 mg/kg/dose BID oral (30 mg/kg/day), read-out: AUC0-t): 3490 ng·h/mL
- Cmax [12]: 558 ng/mL
- Ctrough [12]: 82.2 ng/mL
- DN AUC0-12 [12]: 195 (h*ng/mL)/(mg/kg/dose)
- DN AUC0-24 [12]: 233 (h*ng/mL)/(mg/kg/day)
- DN AUC0-240 [12]: 261 (h*ng/mL)/(mg/kg/day)
- DN Cmax [12]: 37.2 (ng/mL)/(mg/kg/day)
